This note sets out measurements from US20120015056A1, “COMPOSITION COMPRISING EXTRACTS OR FRACTIONS OF SPECIFIC PLANTS, USE THEREOF AND PROCESS FOR PREPARING THE EXTRACTS” (priority 2010, published 2012).

Type in all cases: cell-based
Assay [1] has as its system MDA-MB-231 (breast cancer). As to the kind of experiment: XTT assay, viability of MDA-MB-231 at 450 nm. More on the design: key to value of [the treated group−the blank group], Mean value: absorbance at 450 nm, treated minus blank. The method, then: Each of 5×10^3 breast cancer cells MDA-MB-231 and TTU-1 were seeded in a 96-well flat-bottomed microplate, and cultured in CO2 incubator. Cells were seeded in a 96-well tissue culture plate at a density of 10,000 cells for normal cells and 5,000 cells for cancer cells. DMEM plus 10% fetal bovine serum was used as a culture medium. At 24 hours after seeding, the extracts obtained in the Examples 1 to 3 were added to each well. At 12 hours after added the extracts, XTT solutions were added and then the cells were incubated for 2 hours. After that, absorbance value were measured using microplate spectrophotometer at a wavelength of 450 nm. In addition, Annexin-V/PI-stained MDA-MB-231 and TTU-1 cells were photographed and observed.
(§1) In the following, the values for the composition of the invention indicate the mean value of values obtained using the extracts of the Examples 1 to 3.
The following Table 4 and FIG. 9 show the value of [the treated group−the blank group] determined in cell line MDA-MB-231.
On the technique in general: Formazan colour is commonly taken as a measure of viable cells.

Another assay concerns TTU-1 (breast cancer). Kind of assay: XTT assay, viability of TTU-1 at 450 nm. The method, then:
Each of 5×10^3 breast cancer cells MDA-MB-231 and TTU-1 were seeded in a 96-well flat-bottomed microplate, and cultured in CO2 incubator. Cells were seeded in a 96-well tissue culture plate at a density of 10,000 cells for normal cells and 5,000 cells for cancer cells. DMEM plus 10% fetal bovine serum was used as a culture medium. […] […] After that, absorbance value were measured using microplate spectrophotometer at a wavelength of 450 nm. In addition, Annexin-V/PI-stained MDA-MB-231 and TTU-1 cells were photographed and observed.

The next assay has as its system HepG2 (liver cancer). As to the kind of experiment: MTT assay, viability of HepG2 at 500 nm. The arrangement: value of the treated group, Mean value: unit not given here. The method, then:
(§2) Similarly, MTT assay was performed for lung cancer cell line A549 and liver cancer cell line HepG2. But, MTT solutions were added instead of XTT solutions; as a culture medium, RPMI1640 with L-glutamine (300 mg/L), 25 mM HEPES and 25 mM NaHCO3 90% and heat-inactivated fetal bovine serum (FBS) 10% was used for A549, and minimum essential medium, 25 mM HEPES and 25 mM NaHCO3 90% and heat-inactivated fetal bovine serum (FBS) 10% was used for HepG2; and MTT values were measured at 1 d, 2 d, 3 d and 4 d, respectively.
as §1
The following Table 7 and FIG. 12 show the value of the treated group determined in cell line HepG2.

A further assay has as its system A549 (lung cancer). Kind of assay: MTT assay, viability of A549 at 500 nm. More on the design: value of the treated group, Mean value: unit not given here. The method, then: as §2, §1
The following Table 6 and FIG. 11 show the value of the treated group determined in cell line A549.

Structures are written as SMILES.

On to `CC(=O)O[C@H]1C(=O)[C@@]2(C)[C@H]([C@H](OC(=O)c3ccccc3)[C@]3(O)C[C@H](OC(=O)[C@H](O)[C@@H](NC(=O)c4ccccc4)c4ccccc4)C(C)=C1C3(C)C)[C@]1(OC(C)=O)CO[C@@H]1C[C@@H]2O` [Taxol], for which the “course of the value as time goes by (FIG. 9)” value in assay [1] is on record as “increasing”. Moreover, the “value of [the treated group−the blank group], Mean value” is listed as 0.074 in assay [1] (1.2 × 10^−7M, 12 h); 0.107 in assay [1] (1.2 × 10^−7M, 84 h); −0.006 in assay [1] (1.2 × 10^−7M, 108 h); 0.034 in assay [1] (1.2 × 10^−7M, 132 h); 0.076 in assay [1] (2.5 × 10^−6M, 12 h); 0.085 in assay [1] (2.5 × 10^−6M, 84 h). For the same compound, the “value of [the treated group−the blank group], Mean value” is recorded as 0.024 in assay [1] (2.5 × 10^−6M, 108 h); −0.007 in assay [1] (2.5 × 10^−6M, 132 h); 0.079 in the assay on TTU-1 (breast cancer) (1.2 × 10^−7M, 12 h); 0.123 with TTU-1 (breast cancer) (1.2 × 10^−7M, 84 h); 0.012 in the assay on TTU-1 (breast cancer) (1.2 × 10^−7M, 108 h); 0.084 in the assay with TTU-1 (breast cancer) (1.2 × 10^−7M, 132 h). For the same compound, the “value of [the treated group−the blank group], Mean value” in the assay on TTU-1 (breast cancer) (2.5 × 10^−6M, 12 h) is 0.067; in the assay on TTU-1 (breast cancer) (2.5 × 10^−6M, 108 h), −0.002; with TTU-1 (breast cancer) (2.5 × 10^−6M, 132 h), 0.035. Besides, the “course of the value as time goes by (FIG. 10)” value with TTU-1 (breast cancer) is given as “increasing”. For the same compound, the “course of the value as time goes by (FIG. 12)” value in the assay with HepG2 (liver cancer) is given as “increasing”. Further, the “value of the treated group, Mean value” in the assay on HepG2 (liver cancer) (35.1 uM/ml, 24 h) was determined as 2.73; with HepG2 (liver cancer) (35.1 uM/ml, 48 h) it was 2.604; with HepG2 (liver cancer) (35.1 uM/ml, 72 h), 2.506; in the assay with HepG2 (liver cancer) (35.1 uM/ml, 96 h), 2.546; with HepG2 (liver cancer) (70.2 uM/ml, 24 h), 2.71; in the assay with HepG2 (liver cancer) (70.2 uM/ml, 48 h) it was 2.595. In addition, the “value of the treated group, Mean value” in the assay on HepG2 (liver cancer) (70.2 uM/ml, 72 h) was determined as 2.466; in the assay with HepG2 (liver cancer) (70.2 uM/ml, 96 h) it was 2.389; in the assay with A549 (lung cancer) (35.1 uM/ml, 24 h) it was 2.438; in the assay with A549 (lung cancer) (35.1 uM/ml, 48 h), 2.753; with A549 (lung cancer) (35.1 uM/ml, 72 h) it was 2.6; in the assay on A549 (lung cancer) (35.1 uM/ml, 96 h), 2.934. The “value of the treated group, Mean value” with A549 (lung cancer) (70.2 uM/ml, 24 h) is given as 2.488; in the assay on A549 (lung cancer) (70.2 uM/ml, 48 h) it was 2.911; in the assay with A549 (lung cancer) (70.2 uM/ml, 72 h), 2.691; with A549 (lung cancer) (70.2 uM/ml, 96 h), 2.98. In addition, the “course of the value as time goes by (FIG. 11)” value in the assay on A549 (lung cancer) is “increasing”.

Regarding `O=c1[nH]cc(F)c(=O)[nH]1` [Example 5-FU, 5-FU], the “value of the treated group, Mean value” was 2.867 in the assay on HepG2 (liver cancer) (1,000 ppm, 24 h); 1.998 in the assay on HepG2 (liver cancer) (1,000 ppm, 48 h); 1.853 in the assay on HepG2 (liver cancer) (1,000 ppm, 72 h); 0.938 in the assay on HepG2 (liver cancer) (1,000 ppm, 96 h); 2.298 with A549 (lung cancer) (1,000 ppm, 24 h); 1.697 in the assay with A549 (lung cancer) (1,000 ppm, 48 h). In addition, the “value of the treated group, Mean value” in the assay on A549 (lung cancer) (1,000 ppm, 72 h) stood at 0.863; in the assay with A549 (lung cancer) (1,000 ppm, 96 h), 0.42.
